Test results as given in patent US20120252784A1, “2,3,4-BENZOTHIADIAZEPINE-2,2-DIOXIDE DERIVATIVES” (priority 2009, published 2012).

Tested on: taurine
Experiment: Changes in amino acid neurotransmitter levels in the cortical area of male rats (HPLC, electrochemical detection)
Type: in vivo, rat
Details: male SPDR rats, intraperitoneal, 0.4% aqueous methylcellulose suspension, decapitated 30 minutes after administration, compared to vehicle control group
Procedure: The in vivo biological effectiveness of the compounds of the present invention on the central nervous system was examined by the following experimental model.
Changes in Amino Acid Neurotransmitter Levels in the Cortical Area of Male Rats
Male SPDR rats weighing 200-250 g, were used in the experiments. Changes in the concentration of amino acid neurotransmitters were measured from cortical areas by high-performance liquid chromatography (HPLC) and electrochemical detection.
The investigations were carried out with two experimental groups wherein each group contained 8 animals. One group was administered intraperitoneally by vehicle only (control group). The other group was administered intraperitoneally by the compound of the Example 15, suspended in vehicle. The dose of administration was in the form of 0.4% aqueous methylcellulose suspension.
The animals were decapitated 30 minutes after the administration, brains have been removed and required brain regions were dissected. The tissues were stored at −70° C.
The tissues were homogenized in ice-cold 0.1 M perchlorate in 500 volume excess. […]
The tissue concentrations of the amino acids were measured by standard solutions containing amino acids with known concentration.

Q: With `CN1N=C(c2ccc(F)cc2)c2cc(Cl)ccc2CS1(=O)=O` [Example 16, 7-Chloro-5-(4-fluoro-phenyl)-3-methyl-1,3-dihydro-2̂,4-benzothiadiazepin-2,2-dioxide] as the molecule, how does the “concentrations of the amino acid taurine in the frontal cortex” value read?
A: significantly increased
